Results published in patent US8883963B2 (Cadila Healthcare Limited, priority 2007, dated 2014).

Assays:
[1] = Stability in human plasma; format: in vitro ADME; conditions: 2 μM peptidomimetic, pooled human plasma, 37° C.; for half-life at 2 μM: pH 7.8, read-out: half-life (t1/2) when incubated with human plasma
Description: (§1) Reactions were terminated by the addition of TFA/H2O (15 mL, 10% (v/v)). […] The column was equilibrated with TFA/H20, at a flow rate of 1 mL/min.

[2] = Stability in liver microsomes; format: in vitro ADME; conditions: 2 μM peptidomimetic, human liver microsomes, 37° C.; for half-life at 2 μM: pH 7.8, read-out: half-life (t1/2) when incubated with liver microsomes
Description: as §1

[3] = Stability in simulated intestinal fluid; format: in vitro ADME; conditions: 2 μM peptidomimetic, simulated intestinal fluid pH 7.5, 37° C.; for half-life at 2 μM: read-out: half-life (t1/2) when incubated with simulated intestinal fluid
Description: as §1

[4] = tested on: RIN5F (Rat Insulinoma) cells; experiment: In vitro glucose-dependent insulin secretion (RIN5F cell assay screening protocol); format: cell-based; conditions: 16.7 mM glucose load
[5] = Stability in simulated gastric fluid; format: in vitro ADME; conditions: 2 μM peptidomimetic, simulated gastric fluid pH 1.5, 37° C.; for half-life at 2 μM: read-out: half-life (t1/2) when incubated with simulated gastric fluid
Description: as §1

human glucagon receptor = target: T1, human glucagon receptor (Homo sapiens, UniProt P47871); experiment: In vitro human glucagon antagonist activity (inhibition of cAMP production) in CHO/human glucagon R cells; format: cell-based; conditions: with saturated concentration of glucagon peptide
T1 construct: The full-length cDNA was cloned in pcDNA3.1 (Invitrogen); expressed in transfected cells
T1 sequence (P47871 26-477): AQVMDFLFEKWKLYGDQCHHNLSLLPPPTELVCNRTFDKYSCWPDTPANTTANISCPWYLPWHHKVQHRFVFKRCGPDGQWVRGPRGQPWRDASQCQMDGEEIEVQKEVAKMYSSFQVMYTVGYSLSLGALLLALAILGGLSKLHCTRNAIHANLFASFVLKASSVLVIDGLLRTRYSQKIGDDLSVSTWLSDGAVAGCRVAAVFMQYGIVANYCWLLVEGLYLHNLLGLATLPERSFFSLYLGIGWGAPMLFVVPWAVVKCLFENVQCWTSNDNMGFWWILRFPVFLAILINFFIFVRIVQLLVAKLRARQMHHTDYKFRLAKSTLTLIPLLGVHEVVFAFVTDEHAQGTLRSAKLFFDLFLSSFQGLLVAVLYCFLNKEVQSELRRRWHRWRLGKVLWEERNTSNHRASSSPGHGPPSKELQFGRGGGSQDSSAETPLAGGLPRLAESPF

DPP IV = DPP IV (Homo sapiens, UniProt P27487); experiment: Stability against DPP IV enzyme; format: in vitro ADME; conditions: 37° C.; for % degradation of peptidomimetics in 24 h when incubated with DPP-IV enzyme: 2 μM peptidomimetic; for half-life at 2 μM: DPP IV enzyme, pH 7.8, 2 μM peptidomimetic, read-out: half-life (t1/2) when incubated with DPP-IV enzyme
Chain of DPP IV (P27487 whole entry, species assumed): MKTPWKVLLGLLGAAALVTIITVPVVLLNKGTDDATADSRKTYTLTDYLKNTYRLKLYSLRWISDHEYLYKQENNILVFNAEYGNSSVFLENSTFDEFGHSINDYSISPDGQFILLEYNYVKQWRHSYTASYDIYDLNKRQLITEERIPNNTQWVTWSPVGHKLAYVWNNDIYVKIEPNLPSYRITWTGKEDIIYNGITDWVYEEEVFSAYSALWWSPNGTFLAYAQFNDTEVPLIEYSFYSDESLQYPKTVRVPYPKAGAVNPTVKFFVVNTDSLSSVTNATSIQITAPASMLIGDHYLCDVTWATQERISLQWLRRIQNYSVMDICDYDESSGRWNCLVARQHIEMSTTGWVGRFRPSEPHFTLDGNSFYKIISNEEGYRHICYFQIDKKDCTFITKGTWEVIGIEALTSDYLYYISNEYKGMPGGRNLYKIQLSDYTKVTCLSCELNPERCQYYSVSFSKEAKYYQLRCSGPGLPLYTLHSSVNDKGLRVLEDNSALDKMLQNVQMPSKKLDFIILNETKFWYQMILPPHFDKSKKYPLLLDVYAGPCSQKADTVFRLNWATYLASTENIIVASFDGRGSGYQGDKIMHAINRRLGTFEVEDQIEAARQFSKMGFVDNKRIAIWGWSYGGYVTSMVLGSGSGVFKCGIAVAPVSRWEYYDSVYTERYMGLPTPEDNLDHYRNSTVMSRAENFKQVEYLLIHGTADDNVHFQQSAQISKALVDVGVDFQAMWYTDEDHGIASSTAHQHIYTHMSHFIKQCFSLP
Description: as §1

Human GLP-1 receptor = target: T2, Human GLP-1 receptor (Homo sapiens, UniProt P43220); experiment: In vitro Human GLP-1 R agonist activity (cyclic AMP determination) in CHO/human GLP1R cells; format: cell-based
T2 construct: The full-length cDNA was cloned in pcDNA3.1(+); expressed in transfected cells
T2 sequence (P43220 24-463): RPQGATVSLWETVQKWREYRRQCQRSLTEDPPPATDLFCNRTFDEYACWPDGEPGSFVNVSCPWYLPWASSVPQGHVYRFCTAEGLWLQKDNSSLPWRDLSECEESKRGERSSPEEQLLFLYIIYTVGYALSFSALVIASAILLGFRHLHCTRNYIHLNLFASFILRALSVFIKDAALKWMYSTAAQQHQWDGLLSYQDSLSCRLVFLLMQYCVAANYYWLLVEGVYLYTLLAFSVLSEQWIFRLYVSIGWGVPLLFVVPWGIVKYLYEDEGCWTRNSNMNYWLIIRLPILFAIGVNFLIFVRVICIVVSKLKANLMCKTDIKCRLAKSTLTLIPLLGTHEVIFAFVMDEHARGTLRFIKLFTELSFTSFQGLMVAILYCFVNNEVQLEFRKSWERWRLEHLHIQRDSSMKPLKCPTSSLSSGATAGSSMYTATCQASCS

| Compound | % degradation of peptidomimetics in 24 h when incubated with human plasma [1] | % degradation of peptidomimetics in 24 h when incubated with liver microsomes [2] | half-life at 2 μM [2] | % degradation of peptidomimetics in 24 h when incubated with simulated intestinal fluid [3] | Insulin secretion ([4]; 0.1 nM test compd.) | Insulin secretion ([4]; 1 nM test compd.) | Insulin secretion ([4]; 10 nM test compd.) | % degradation of peptidomimetics in 24 h when incubated with simulated gastric fluid [5] | Human Glucagon receptor antagonistic activity shown as inhibition of cAMP production of Glucagon peptide (human glucagon receptor; 1 nM test compound) | Human Glucagon receptor antagonistic activity shown as inhibition of cAMP production of Glucagon peptide (human glucagon receptor; 10 nM test compound) | Human Glucagon receptor antagonistic activity shown as inhibition of cAMP production of Glucagon peptide (human glucagon receptor; 100 nM test compound) | Human Glucagon receptor antagonistic activity shown as inhibition of cAMP production of Glucagon peptide (human glucagon receptor; 1 μM test compound) | Human Glucagon receptor antagonistic activity shown as inhibition of cAMP production of Glucagon peptide (human glucagon receptor; 10 μM test compound) | % degradation of peptidomimetics in 24 h when incubated with DPP-IV enzyme (DPP IV) | Human GLP-1 R activity (cAMP release), % activity with respect to control (Human GLP-1 receptor; 1 nM test compound) | Human GLP-1 R activity (cAMP release), % activity with respect to control (Human GLP-1 receptor; 10 nM test compound) | Human GLP-1 R activity (cAMP release), % activity with respect to control (Human GLP-1 receptor; 100 nM test compound) | Human GLP-1 R activity (cAMP release), % activity with respect to control (Human GLP-1 receptor; 1 μM test compound) | Human GLP-1 R activity (cAMP release), % activity with respect to control (Human GLP-1 receptor; 10 μM test compound) | half-life at 2 μM [3] | further results |
| --- | --- | --- | --- | --- | --- | --- | --- | --- | --- | --- | --- | --- | --- | --- | --- | --- | --- | --- | --- | --- | --- |
| CCc1cc(OC)ccc1-c1ccc(CC(NC(=O)[C@H](CC(=O)O)NC(=O)[C@H](CO)NC(=O)[C@@H](NC(=O)C(C)(Cc2ccccc2F)NC(=O)[C@@H](NC(=O)CNC(=O)C(CCC#N)NC(=O)C(C)(C)NC(=O)[C@@H](N)Cc2c[nH]cn2)[C@H](C)O)[C@H](C)O)C(=S)NC(CCCc2ccccc2)C(N)=O)cc1 (single isomer, unassigned) [compound 166] | 70% | 77% | 1 h | 41% | 15.4 ± 0.14 pg/µg/h | 21.2 ± 0.18 pg/µg/h | 35.6 ± 0.17 pg/µg/h | 15% | 19 ± 0.03 pmol/ml/μg prt | 17 ± 0.08 pmol/ml/μg prt | 15 ± 0.01 pmol/ml/μg prt | 14 ± 0.02 pmol/ml/μg prt | 12 ± 0.11 pmol/ml/μg prt | 86% | 96 ± 0.02% | 99 ± 0.46% | 99 ± 0.41% | 99 ± 0.66% | 99 ± 0.03% |  | half-life at 2 μM [1]: 8 h; half-life (t1/2) when incubated with simulated intestinal fluid [3]: (6) h; half-life (t1/2) when incubated with simulated gastric fluid [5]: (8) h; half-life at 2 μM (DPP IV): 9 h |
| CCc1cc(OC)ccc1-c1ccc(CC(NC(=O)[C@H](CC(=O)O)NC(=O)[C@H](CO)NC(=O)[C@@H](NC(=O)C(C)(Cc2ccccc2F)NC(=O)[C@@H](NC(=O)CNC(=O)C(CCC#N)NC(=O)C(C)(C)NC(=O)[C@@H](N)Cc2c[nH]cn2)[C@@H](C)O)[C@H](C)O)C(=O)NC(CCCc2ccccc2F)C(N)=O)cc1 (single isomer, unassigned) [compound 120] | 00% | 80% | 2 h | 00% | 16.3 ± 0.15 pg/µg/h | 22.4 ± 0.21 pg/µg/h | 36.2 ± 0.11 pg/µg/h | 41% | 0 pmol/ml/μg prt | 0 pmol/ml/μg prt | 0 pmol/ml/μg prt | 0 pmol/ml/μg prt | 0 pmol/ml/μg prt | 00% | 99 ± 0.12% | 99 ± 0.15% | 99 ± 0.18% | 99 ± 0.03% | 99 ± 0.09% | > 24 h | half-life at 2 μM [1]: > 24 h; half-life at 2 μM [5]: 4 h; half-life at 2 μM (DPP IV): > 24 h |
| CCc1cc(OC)ccc1-c1ccc(CC(NC(=O)[C@H](CC(=O)O)NC(=O)[C@H](CO)NC(=O)[C@@H](NC(=O)[C@H](Cc2ccccc2)NC(=O)[C@@H](NC(=O)CNC(=O)C(CCC#N)NC(=O)C(C)(C)NC(=O)[C@@H](N)Cc2c[nH]cn2)[C@@H](C)O)[C@@H](C)O)C(=O)NC(CCCc2ccccc2F)C(N)=O)cc1 (single isomer, unassigned) [compound 77] | 75% | 100% | 0.5 h | 100% | 15.6 ± 0.33 pg/µg/h | 21.8 ± 0.16 pg/µg/h | 35.6 ± 0.26 pg/µg/h | 100% | 20 ± 0.06 pmol/ml/μg prt | 18 ± 0.09 pmol/ml/μg prt | 16 ± 0.01 pmol/ml/μg prt | 14 ± 0.03 pmol/ml/μg prt | 12 ± 0.01 pmol/ml/μg prt | 74% | 40 ± 0.09% | 81 ± 0.07% | 87 ± 0.04% | 95 ± 0.01% | 98 ± 0.08% | 0.5 h | half-life (t1/2) when incubated with human plasma [1]: (9) h; half-life at 2 μM [5]: 0.5 h |
| CCc1cc(OC)ccc1-c1ccc(CC(NC(=O)[C@H](CC(=O)O)NC(=O)[C@H](CO)NC(=O)[C@@H](NC(=O)[C@H](Cc2ccccc2)NC(=O)[C@@H](NC(=O)CNC(=O)C(CCC#N)NC(=O)C(C)(C)NC(=O)[C@@H](N)Cc2c[nH]cn2)[C@@H](C)O)[C@@H](C)O)C(=O)NC(CCCc2ccccc2C(F)(F)F)C(N)=O)cc1 (single isomer, unassigned) [compound 79] | 70% | 100% | 0.5 h | 100% | 16.5 ± 0.12 pg/µg/h | 22.7 ± 0.17 pg/µg/h | 36.5 ± 0.05 pg/µg/h | 100% | 6 ± 0.02 pmol/ml/μg prt | 5 ± 0.03 pmol/ml/μg prt | 2 ± 0.61 pmol/ml/μg prt | 0 pmol/ml/μg prt | 0 pmol/ml/μg prt | 86% | 62 ± 0.11% | 94 ± 0.09% | 99 ± 0.06% | 99 ± 0.14% | 99 ± 0.19% | 0.5 h | half-life (t1/2) when incubated with human plasma [1]: (9) h; half-life at 2 μM [5]: 0.5 h |
